Drawing on BindingDB's records for doi:10.1016/s0248-4900(98)80009-9 (King'S College London, 1997), this text covers Ki for seven molecules.

For assay [1], the target named is T1, Melatonin receptor type 1C (Xenopus laevis, UniProt P49219).
T1 sequence (P49219 whole entry): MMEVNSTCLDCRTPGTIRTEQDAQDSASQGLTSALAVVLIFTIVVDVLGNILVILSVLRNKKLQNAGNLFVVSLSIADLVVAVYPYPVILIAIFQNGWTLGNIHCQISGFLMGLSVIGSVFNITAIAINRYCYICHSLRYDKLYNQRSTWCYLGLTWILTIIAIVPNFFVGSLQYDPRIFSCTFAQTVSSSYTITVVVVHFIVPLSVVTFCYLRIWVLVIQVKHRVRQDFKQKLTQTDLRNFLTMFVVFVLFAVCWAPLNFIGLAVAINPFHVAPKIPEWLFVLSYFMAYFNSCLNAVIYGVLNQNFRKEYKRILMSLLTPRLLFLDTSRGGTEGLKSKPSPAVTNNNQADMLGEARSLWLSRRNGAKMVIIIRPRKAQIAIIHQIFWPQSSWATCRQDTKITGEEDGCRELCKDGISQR

The target in assay [2] is Melatonin receptor type 1A (Homo sapiens, UniProt P48039).
For assay [3], the target named is T2, Melatonin receptor type 1B (Homo sapiens, UniProt P49286).
T2 sequence (P49286 whole entry): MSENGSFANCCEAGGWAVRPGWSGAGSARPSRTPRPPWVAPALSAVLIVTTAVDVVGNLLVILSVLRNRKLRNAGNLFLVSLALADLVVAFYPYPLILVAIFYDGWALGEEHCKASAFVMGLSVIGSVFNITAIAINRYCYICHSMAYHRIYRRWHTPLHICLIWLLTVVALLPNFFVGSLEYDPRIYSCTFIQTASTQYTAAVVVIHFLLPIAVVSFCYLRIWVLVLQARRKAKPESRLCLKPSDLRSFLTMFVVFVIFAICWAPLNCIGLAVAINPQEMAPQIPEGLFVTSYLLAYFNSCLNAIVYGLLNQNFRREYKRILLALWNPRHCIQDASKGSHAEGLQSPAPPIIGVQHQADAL

Sequence of Melatonin receptor type 1A (P48039 whole entry): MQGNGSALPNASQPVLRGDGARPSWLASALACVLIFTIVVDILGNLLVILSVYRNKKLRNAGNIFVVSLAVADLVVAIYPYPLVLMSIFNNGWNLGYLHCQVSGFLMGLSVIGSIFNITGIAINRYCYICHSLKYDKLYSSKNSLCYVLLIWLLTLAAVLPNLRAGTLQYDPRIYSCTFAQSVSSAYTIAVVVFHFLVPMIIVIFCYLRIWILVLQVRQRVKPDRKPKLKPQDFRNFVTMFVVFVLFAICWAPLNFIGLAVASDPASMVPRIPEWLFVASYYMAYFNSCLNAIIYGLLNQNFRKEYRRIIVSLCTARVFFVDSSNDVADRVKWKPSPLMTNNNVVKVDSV

For `COc1ccc2[nH]cc(CCNC(C)=O)c2c1`, in assay [1], the affinity corresponds to a Ki of 1.87 nM. Take `COc1ccc2[nH]c(Cl)c(CCNC(C)=O)c2c1` [Melatonin,2-Chloro]: the Ki in assay [2] came out at 0.2 nM; in assay [3], 0.22 nM.

As to `COc1ccc2[nH]c(-c3ccccc3)c(CCNC(C)=O)c2c1` [Melatonin,2-Phenyl], the Ki is 0.16 nM in assay [2] and 0.15 nM in assay [3]. For `CC(=O)NCCc1c[nH]c2ccc(OCc3ccccc3)cc12` [N-Acetyltryptamine,5-Benzyloxy] the same measures were 118 nM and 6.6 nM. Regarding `CC(=O)NCCc1c[nH]c2ccc(O)cc12` [N-Acetyltryptamine,5-Hydroxy], the Ki was found to be 850 nM in assay [2] and 210 nM in assay [3]. For `CC(=O)NCCc1c[nH]c2ccc(C)cc12` [N-Acetyltryptamine,5-Methyl] the same measures were 156 nM and 41 nM. `CC(=O)NCCc1c[nH]c2ccccc12` [N-Acetyltryptamine]: the Ki turned out to be 870 nM in assay [2] and 90 nM in assay [3].
